One data set has as its system pleurisy in mice. Nature of the data set: Murine model of pleurisy. It is filed as in vivo. To be noted: for neutrophil cells, carrageenan pleurisy / total cells, carrageenan pleurisy: MV 8612 30 and 60, MV 8608 30, i.p. The procedure:
To assess further the anti-inflammatory action of MV 8612 and MV 8608, their effects against the inflammatory responses caused by several mediators of inflammation in a murine model of pleurisy were tested (Saleh et al., 1996, Br. J. Pharmacol. 118:811–819). In addition, both compounds were tested against the increase of vascular permeability caused by bradykinin in the rat skin (Neves et al., 1993b, Phytotherapy Research. 7:356–362).

The subject of data set [1] is PAF-induced arterial vasodilatation and venconstriction. Nature of the data set: Double-perfused mesenteric bed of the rat. An excerpt:
The inhibitory properties of MV8608 are specific for PAF as the response to ACh (arterial) and AngII (venous) are unaffected by the pregnane-containing moiety.

The subject of another data set is T-type Ca^2+ current. Description: Whole-cell voltage clamp, T-type Ca2+ current in heart cells. It is filed as cell-based. The procedure: Single cells of different types in culture were prepared from biopsies of human, chick and rabbit. Known and accepted methods for the isolation of fast Na^+ current, T, L and R-type Ca^2+ channels as well as delayed outward K^+ current were used (Bkaily 1994, supra).
The compounds to be tested are added to the appropriate extracellular solution after recording a stable ionic current or normal steady-state level of […]. The effect of different concentrations of compounds are tested on the different type of current and [Ca]i of the different cell types. The effect of each concentration of the compounds in function of the time of exposure are then determined. Once the steady-state effect is reached, the second concentration is added, etc.
In another series of experiments (n=7), the effect of different concentrations of MV8608 were tested on the T-type Ca^2+ current (ICa) using the whole-cell voltage clamp technique and classical experimental conditions described elsewhere by the inventors (Bkaily G. et al., 1991, supra; 1992, supra; 1993, supra). […] As it can be seen in that figure, the inset effect of MV8608 in T-type ICa is immediate.

The subject of data set [2] is R-type Ca^2+ channel. Description: Fura-2 [Ca]i, freshly isolated human aortic endothelial cells. The data set is classed as cell-based. To be noted: 10^−9M. An excerpt:
This sustained increase of Ca^2+ induced by depolarization of the cell membrane or hormones such as PAF, ET-1 and bradykinin is due to the increase of Ca^2+ influx through the R-type Ca^2+ channels at the sarcolemmal membrane and/or the nuclear membrane (Bkaily G., 1994, supra; 1996, supra; 1997a–d, supra). Using Ca^2+ fluorescence probes Fura-2 or Fluo-3 and 2 and three-dimension Ca^2+ imaging techniques (Bkaily G., 1994, supra; 1996, supra; 1997a–d, supra), the effect of hormones and drugs could be easily tested. These two methods are used with single cells of different types as described above.
(§1) In another series of experiments we tested the effect of MV8608 (10^−9M) on R-type Ca^2+ channels stimulation-induced sustained increase of total intracellular Ca^2+ by sustained depolarization (FIGS. 15 to 19), by PAF (10^−9M) (FIGS. 16 to 19 and 21 to 22), by ET-1 (10^−9M) (FIGS. 16 and 19) and bradykinin (BK, 10^−6M) (FIGS. 20 and 21), in embryonic chick heart cells (FIGS. 15, 16, 19 and 20), 19-week-old human fetal heart cells (FIGS. 15, 17, 18 and 20), rabbit aortic vascular smooth muscle (VSM) cells (FIGS. 20 and 21), human aortic VSM cell-line (FIG. 23) and freshly isolated (FIG. 22) as well as in freshly isolated aortic endothelial cells (FIG. 22).

Data set [3] has as its system R-type Ca^2+ channel. Nature of the data set: Fura-2 [Ca]i, human fetal heart cells. It is filed as cell-based. To be noted: 10^−9M, KCl 30 mM, PAF 10^−9M.
Source text: These two methods are used with single cells of different types as described above.
as §1

Another data set has as its system mouse paw oedema. Description: Mouse paw oedema. The data set is classed as in vivo, mice. The procedure:
In this experiment (N=5 to 6 animals per group), the anti-oedemagenic action of compounds MV 8608 and MV 8612 against bradykinin and several mediators which are reported to be involved in the inflammatory processes, was evaluated. The procedures used to perform these experiments have been reported elsewhere (Neves et al., 1993, Eur. J. Pharmacol. 243:213–219; Campos et al., 1995, Br. J. Pharmacol. 114:1005–1013; Campos et al., 1996, Br. J. Pharmacol. 117:793–798; Eur. J. Pharmacol. 316:227–286). […] As reported previously, in rats treated […] prior to a systemic injection of LPS, both B1 and B2 kinin selective agonists caused marked oedema formation (FIGS. 37C and D (Campos et al., 1996, supra)).
When tested in mice, MV 8612 (40 to 160 nmol/paw) inhibited bradykinin and carrageenan-induced paw oedema in mice in a dose-dependent manner (FIGS. 46A and B).

Data set [4] has as its system contraction of rat uterus induced by BK. To be noted: Calixto et al. 1987; cited from earlier work.
In a further data set the test system is tail-flick. Nature of the data set: Tail-flick in mice. The data set is classed as in vivo. As to conditions: i.p.
The test system of the next data set is anaesthetized rat. Description: Anaesthetized rat, blood pressure and PAF hypotension. As to conditions: anaesthetized rat. It is filed as in vivo. The text has this: (§2) On the other hand, in vivo administered PAF, induced a marked hypotension in the anaesthetized rat and guinea pig.
For a further data set, the system named is anaesthetized guinea pig. Nature of the data set: Anaesthetized guinea pig, PAF bronchoconstriction and hypotension. The data set is classed as in vivo.
Source text: as §2

Where [5] appears, read: 40 to 160 nmol/paw co-injection.

Consider two molecules from patent publication US7109175B1, “Specific steady-state R-type CA2+ channel blockers and use thereof” (Universite de Sherbrooke, priority 2000, dated 2006).

The structures appear in SMILES notation. Entries after “also recorded” stand apart in the source; their conditions may differ.

`C[C@]12CC[C@H](O)CC1=CC[C@@H]1[C@@H]2CC[C@]2(C)[C@H]3[C@@H]4OC[C@H]3O[C@@H](O)[C@]12O4` [MV8608, (15R, 16R, 20S)-14, 16:15,20:16,21-triepoxi-15,16-seco 14β, 17α-pregn-5-ene-3β, 15-diol]: in the data set on pleurisy in mice (30, i.p.), the “mononuclear cells influx, PAF pleurisy” value is reported as “antagonised significantly” and the “plasma extravasation, PAF pleurisy” value was “antagonised significantly”. In the data set with pleurisy in mice, the “neutrophil cells, carrageenan pleurisy” value is listed as “inhibited significantly” and the “total cells, carrageenan pleurisy” value was “inhibited significantly”. The “response to ACh (arterial) and AngII (venous)” value in data set [1] was “unaffected”. Further, the “PAF-induced responses (arterial vasodilatation, venconstriction)” value in data set [1] (1 μM in FIG. 24) was “concentration-dependent inhibition; also recorded: blocked PAF”. Further, the “overall effect on T-type ICa” value in the data set with T-type Ca^2+ current (10^−9M and 10^−7M, heart cells) is recorded as “very weak depressor; also recorded: relative weak depressing effect”. Besides, the “effect on T-type ICa amplitude” value in the data set with T-type Ca^2+ current (10^−9M to 10^−7M, n=7) is on record as “had no effect”. Besides, in the data set on R-type Ca^2+ channel [2], the “basal [Ca]i” value was “decrease of basal sustained increase of [Ca]i”. Besides, the “sustained increase of [Ca]i” value with R-type Ca^2+ channel [3] is “blockade”. In the data set on mouse paw oedema (7.5 and 15, i.p.), the histamine-induced paw oedema entry is on record as “dose-related inhibition” and the serotonin-induced paw oedema entry is listed as “dose-related inhibition”. In addition, the bradykinin-induced paw oedema result in the data set with mouse paw oedema (7.5 and 15, i.p., 30 min prior) was “unaffected”. Further, the “inhibition of BK-induced contraction of rat uterus” value in data set [4] is “selective in its ability to inhibit the contraction of rat uterus induced by BK”.
Take `COC1CC(OC2C(C)OC(O[C@H]3CC[C@@]4(C)C(=CC[C@@H]5[C@@H]4CC[C@]4(C)[C@H]6[C@@H]7OC[C@H]6O[C@@H](O)[C@]54O7)C3)CC2OC)OC(C)C1OC1CC(OC)C(OC2CC(OC)C(OC3OC(C)C(OC(C)=O)C(OC)C3OC(C)=O)C(C)O2)C(C)O1` (some centres unmarked) [MV8612]: the “plasma extravasation, carrageenan pleurisy” value in the data set with pleurisy in mice (30 and 60, i.p., 1 h prior) is listed as “significantly inhibited”. Besides, in the data set with pleurisy in mice, the “neutrophil cells, carrageenan pleurisy” value is recorded as “significantly inhibited” and the “total cells, carrageenan pleurisy” value is on record as “significantly inhibited”. Further, the “inflammatory response caused by PAF acether” value in the data set on pleurisy in mice (same range of dose, i.p.) is “did not affect significantly”. For the same molecule, in the data set on tail-flick, the “ID50 TAIL-FLICK” value was “no effect”. The “hypotensive effect of PAF” value in the data set with anaesthetized rat is listed as “Identical inhibition”. Also, in the data set with anaesthetized guinea pig (guinea pig), the intrinsic hypotensive effect entry is on record as “devoid of marked intrinsic effect”. In addition, in the data set on anaesthetized guinea pig (pretreatment), the “bronchoconstrictive responses to PAF” value was “abolishes” and the “hypotensive effects of PAF” value is listed as “very significantly reduced; also recorded: abolishes”. Besides, in the data set on anaesthetized guinea pig (same animal), the “hypotensive effect of PAF after withdrawal of treatment” value is given as “fully restored”. Moreover, in the data set with mouse paw oedema (7.5 and 15, i.p.), the histamine-induced paw oedema entry is recorded as “no significant effect” and the serotonin-induced paw oedema result was “no significant effect”. For the same molecule, in the data set on mouse paw oedema (7.5 and 15, i.p., 30 min prior), the bradykinin-induced paw oedema entry is “dose-dependent inhibition” and the “cellulose sulphate-induced paw oedema” value is listed as “dose-dependent inhibition”. For the same molecule, in the data set on mouse paw oedema (40 to 160 nmol/paw), the PAF-acether-induced oedema result is reported as “failed to affect significantly” and the serotonin-induced oedema result was “failed to affect significantly”. For the same molecule, in the data set on mouse paw oedema (setting [5]), the bradykinin-induced paw oedema result is on record as “inhibited” and the carrageenan-induced paw oedema entry is listed as “inhibited”.
